Measured values taken from ChEMBL document CHEMBL1250444, “Nitric oxide activates TRP channels by cysteine S-nitrosylation” (Nat Chem Biol, 2006).
Substitutions are numbered along the chain they refer to. Active and inactive are the calls of the source.

Assays:
[1] = system: T1, Short transient receptor potential channel 5 (Homo sapiens), Q9UL62 [C558S]; experiment: Decrease in TRPC5 C558S mutant S-nitrosylation in HEK cells assessed as inhibition of incorporation of DTNB-2Bio at 30 uM relative to control; format: cell-based; settings: HEK293
T1 sequence (whole entry): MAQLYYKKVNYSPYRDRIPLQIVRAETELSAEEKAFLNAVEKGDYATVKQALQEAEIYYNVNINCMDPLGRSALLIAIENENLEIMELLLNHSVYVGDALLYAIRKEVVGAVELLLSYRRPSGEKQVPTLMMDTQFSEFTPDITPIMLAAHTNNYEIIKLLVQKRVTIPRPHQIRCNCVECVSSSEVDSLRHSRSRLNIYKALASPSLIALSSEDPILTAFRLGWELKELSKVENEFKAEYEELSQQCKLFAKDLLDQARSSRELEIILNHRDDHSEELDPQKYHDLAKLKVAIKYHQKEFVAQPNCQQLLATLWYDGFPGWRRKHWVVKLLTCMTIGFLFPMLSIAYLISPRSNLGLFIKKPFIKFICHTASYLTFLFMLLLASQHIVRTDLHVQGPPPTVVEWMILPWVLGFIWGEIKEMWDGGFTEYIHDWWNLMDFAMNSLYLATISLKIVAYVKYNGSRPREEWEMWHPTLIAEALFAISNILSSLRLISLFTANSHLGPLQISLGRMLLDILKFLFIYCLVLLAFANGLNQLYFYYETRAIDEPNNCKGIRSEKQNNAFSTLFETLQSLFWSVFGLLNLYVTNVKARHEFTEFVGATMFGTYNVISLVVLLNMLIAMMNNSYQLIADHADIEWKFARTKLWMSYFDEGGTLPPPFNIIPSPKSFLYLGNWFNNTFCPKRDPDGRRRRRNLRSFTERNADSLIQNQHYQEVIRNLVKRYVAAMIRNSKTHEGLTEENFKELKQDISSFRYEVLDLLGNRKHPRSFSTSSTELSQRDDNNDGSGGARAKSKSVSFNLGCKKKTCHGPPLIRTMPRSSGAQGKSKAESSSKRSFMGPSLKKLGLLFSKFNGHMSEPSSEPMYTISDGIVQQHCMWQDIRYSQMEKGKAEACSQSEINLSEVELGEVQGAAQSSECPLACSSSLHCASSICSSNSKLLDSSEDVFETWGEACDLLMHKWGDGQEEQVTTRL

[2] = biological target: T2, Short transient receptor potential channel 5 (Homo sapiens) (UniProt Q9UL62); experiment: Activation of TRPC5 expressed in BAEC expressing TRPC5 siRNA assessed as increase in Ca2+ level from extracellular space at 100 uM
T2 sequence (whole entry): T1 sequence (whole entry) with S558C

[3] = biological target: T2, Short transient receptor potential channel 5 (Homo sapiens); experiment: Induction of S-nitrosylation of TRPC5 in HEK cells assessed as increase in Ca2+ level from extracellular space at 30 uM in presence of dithiothreitol; format: cell-based; settings: HEK293
[4] = biological target: Transient receptor potential cation channel subfamily M member 7 (Homo sapiens) (UniProt Q96QT4); experiment: Induction of TRPM7 S-nitrosylation in HEK cells assessed as increase in Ca2+ level from extracellular space at 30 uM; format: cell-based; settings: HEK293
HEK293 [5] = experiment: Activation of rat TRPV1 Cys616 mutant expressed in HEK cells assessed as increase in Ca2+ level from extracellular space at 10 uM; format: cell-based
[6] = biological target: T2, Short transient receptor potential channel 5 (Homo sapiens); experiment: Induction of TRPC5 S-nitrosylation in chicken DT40 cells assessed as increase in Ca2+ level from extracellular space at 30 uM in presence of PLC-beta inhibitor U73122; format: cell-based
[7] = biological target: T2, Short transient receptor potential channel 5 (Homo sapiens); experiment: Induction of S-nitrosylation of TRPC5 in HEK cells assessed as increase in Ca2+ level from extracellular space at 1 mM in presence of dithiothreitol; format: cell-based; settings: HEK293
[8] = biological target: T2, Short transient receptor potential channel 5 (Homo sapiens); experiment: Induction of S-nitrosylation of TRPC5 in HEK cells assessed as inhibition of incorporation of DTNB-2Bio at 300 uM; format: cell-based; settings: HEK293
[9] = biological target: Transient receptor potential cation channel subfamily V member 4 (Homo sapiens) (UniProt Q9HBA0); experiment: Activation of TRPV4 in HEK cells assessed as increase in Ca2+ level from extracellular space at 300 uM; format: cell-based; settings: HEK293
[10] = biological target: Transient receptor potential cation channel subfamily V member 1 (Rattus norvegicus) (UniProt O35433); experiment: Activation of rat TRPV1 expressed in HEK cells assessed as increase in Ca2+ level from extracellular space at 300 uM; format: cell-based; settings: HEK293
HEK293 [11] = experiment: Activation of rat TRPV1 Cys616 mutant expressed in HEK cells assessed as increase in Ca2+ level from extracellular space at 0.1 to 1 mM; format: cell-based
[12] = system: T1, Short transient receptor potential channel 5 (Homo sapiens), Q9UL62 [C558S]; experiment: Decrease in TRPC5 C558S mutant S-nitrosylation in HEK cells assessed as inhibition of incorporation of DTNB-2Bio at 300 uM relative to control; format: cell-based; settings: HEK293

Measured: Activity

Chain of Transient receptor potential cation channel subfamily V member 1 (Rattus norvegicus) (O35433 whole entry): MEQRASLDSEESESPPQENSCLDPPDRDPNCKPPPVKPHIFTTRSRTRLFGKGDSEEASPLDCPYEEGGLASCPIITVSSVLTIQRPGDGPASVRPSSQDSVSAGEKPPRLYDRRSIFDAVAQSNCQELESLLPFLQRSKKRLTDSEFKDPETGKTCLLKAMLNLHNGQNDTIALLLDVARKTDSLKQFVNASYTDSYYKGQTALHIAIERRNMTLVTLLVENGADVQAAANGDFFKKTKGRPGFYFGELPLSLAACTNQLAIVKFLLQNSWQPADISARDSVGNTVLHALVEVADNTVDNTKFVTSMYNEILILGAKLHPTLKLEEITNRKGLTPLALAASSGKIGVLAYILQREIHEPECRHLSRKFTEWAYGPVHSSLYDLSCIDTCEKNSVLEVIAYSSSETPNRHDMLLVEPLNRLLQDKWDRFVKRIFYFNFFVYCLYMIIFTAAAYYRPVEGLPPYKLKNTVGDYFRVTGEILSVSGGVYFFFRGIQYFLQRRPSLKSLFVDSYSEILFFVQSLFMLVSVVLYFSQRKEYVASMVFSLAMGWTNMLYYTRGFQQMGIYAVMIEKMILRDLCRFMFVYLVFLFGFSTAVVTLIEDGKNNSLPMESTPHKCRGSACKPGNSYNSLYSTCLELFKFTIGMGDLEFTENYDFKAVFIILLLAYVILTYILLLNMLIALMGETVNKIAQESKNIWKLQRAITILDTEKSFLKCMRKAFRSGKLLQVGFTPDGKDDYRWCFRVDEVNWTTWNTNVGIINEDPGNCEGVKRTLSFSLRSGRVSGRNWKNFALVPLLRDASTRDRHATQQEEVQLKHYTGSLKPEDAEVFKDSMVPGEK
Chain of Transient receptor potential cation channel subfamily M member 7 (Homo sapiens) (Q96QT4 whole entry): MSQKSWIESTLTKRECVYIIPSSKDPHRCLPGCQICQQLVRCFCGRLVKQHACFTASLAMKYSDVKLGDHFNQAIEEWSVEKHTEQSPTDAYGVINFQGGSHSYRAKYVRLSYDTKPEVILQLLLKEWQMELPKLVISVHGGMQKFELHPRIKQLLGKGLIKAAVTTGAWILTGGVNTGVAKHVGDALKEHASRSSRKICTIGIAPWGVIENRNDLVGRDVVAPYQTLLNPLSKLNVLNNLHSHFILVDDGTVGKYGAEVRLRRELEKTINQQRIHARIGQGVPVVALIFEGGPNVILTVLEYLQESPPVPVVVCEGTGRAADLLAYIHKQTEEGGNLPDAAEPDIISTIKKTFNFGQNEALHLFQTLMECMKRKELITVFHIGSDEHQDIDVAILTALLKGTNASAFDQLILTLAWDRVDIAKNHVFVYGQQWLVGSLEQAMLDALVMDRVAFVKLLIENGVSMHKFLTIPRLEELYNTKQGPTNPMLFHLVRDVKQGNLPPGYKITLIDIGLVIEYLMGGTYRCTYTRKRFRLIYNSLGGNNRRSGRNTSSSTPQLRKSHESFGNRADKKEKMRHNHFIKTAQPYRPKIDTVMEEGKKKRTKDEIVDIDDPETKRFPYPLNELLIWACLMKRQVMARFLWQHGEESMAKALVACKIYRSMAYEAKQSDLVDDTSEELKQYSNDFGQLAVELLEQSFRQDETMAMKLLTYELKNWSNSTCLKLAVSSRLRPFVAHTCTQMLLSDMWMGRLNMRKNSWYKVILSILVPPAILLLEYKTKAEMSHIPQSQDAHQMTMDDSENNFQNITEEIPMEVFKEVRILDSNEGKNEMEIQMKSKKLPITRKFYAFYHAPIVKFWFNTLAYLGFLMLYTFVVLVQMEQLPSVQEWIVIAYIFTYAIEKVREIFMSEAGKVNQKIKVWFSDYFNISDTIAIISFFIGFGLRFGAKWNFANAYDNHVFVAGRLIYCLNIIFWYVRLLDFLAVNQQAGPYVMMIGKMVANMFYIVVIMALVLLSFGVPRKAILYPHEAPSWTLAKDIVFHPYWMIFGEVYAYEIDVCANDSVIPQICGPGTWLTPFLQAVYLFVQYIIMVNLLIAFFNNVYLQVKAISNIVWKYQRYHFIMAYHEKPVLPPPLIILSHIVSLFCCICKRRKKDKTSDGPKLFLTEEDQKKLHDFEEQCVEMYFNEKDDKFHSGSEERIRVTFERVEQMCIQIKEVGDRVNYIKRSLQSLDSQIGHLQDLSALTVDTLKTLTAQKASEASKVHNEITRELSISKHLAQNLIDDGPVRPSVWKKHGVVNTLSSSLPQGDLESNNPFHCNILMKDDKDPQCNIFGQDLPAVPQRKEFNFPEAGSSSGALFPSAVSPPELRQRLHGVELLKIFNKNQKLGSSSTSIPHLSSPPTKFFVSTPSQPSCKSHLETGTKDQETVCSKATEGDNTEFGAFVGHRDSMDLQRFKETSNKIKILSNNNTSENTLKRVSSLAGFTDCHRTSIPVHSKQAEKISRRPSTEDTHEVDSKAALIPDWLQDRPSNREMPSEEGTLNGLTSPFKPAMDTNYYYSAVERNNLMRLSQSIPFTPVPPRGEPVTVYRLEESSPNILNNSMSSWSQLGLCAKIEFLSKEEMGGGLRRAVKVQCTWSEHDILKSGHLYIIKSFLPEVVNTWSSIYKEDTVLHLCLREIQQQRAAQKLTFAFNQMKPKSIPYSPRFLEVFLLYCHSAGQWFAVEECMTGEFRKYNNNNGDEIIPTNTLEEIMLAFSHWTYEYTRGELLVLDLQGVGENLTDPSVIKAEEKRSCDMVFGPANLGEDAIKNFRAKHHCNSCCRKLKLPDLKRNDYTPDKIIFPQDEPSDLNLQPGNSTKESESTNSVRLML
Chain of Transient receptor potential cation channel subfamily V member 4 (Homo sapiens) (Q9HBA0 whole entry): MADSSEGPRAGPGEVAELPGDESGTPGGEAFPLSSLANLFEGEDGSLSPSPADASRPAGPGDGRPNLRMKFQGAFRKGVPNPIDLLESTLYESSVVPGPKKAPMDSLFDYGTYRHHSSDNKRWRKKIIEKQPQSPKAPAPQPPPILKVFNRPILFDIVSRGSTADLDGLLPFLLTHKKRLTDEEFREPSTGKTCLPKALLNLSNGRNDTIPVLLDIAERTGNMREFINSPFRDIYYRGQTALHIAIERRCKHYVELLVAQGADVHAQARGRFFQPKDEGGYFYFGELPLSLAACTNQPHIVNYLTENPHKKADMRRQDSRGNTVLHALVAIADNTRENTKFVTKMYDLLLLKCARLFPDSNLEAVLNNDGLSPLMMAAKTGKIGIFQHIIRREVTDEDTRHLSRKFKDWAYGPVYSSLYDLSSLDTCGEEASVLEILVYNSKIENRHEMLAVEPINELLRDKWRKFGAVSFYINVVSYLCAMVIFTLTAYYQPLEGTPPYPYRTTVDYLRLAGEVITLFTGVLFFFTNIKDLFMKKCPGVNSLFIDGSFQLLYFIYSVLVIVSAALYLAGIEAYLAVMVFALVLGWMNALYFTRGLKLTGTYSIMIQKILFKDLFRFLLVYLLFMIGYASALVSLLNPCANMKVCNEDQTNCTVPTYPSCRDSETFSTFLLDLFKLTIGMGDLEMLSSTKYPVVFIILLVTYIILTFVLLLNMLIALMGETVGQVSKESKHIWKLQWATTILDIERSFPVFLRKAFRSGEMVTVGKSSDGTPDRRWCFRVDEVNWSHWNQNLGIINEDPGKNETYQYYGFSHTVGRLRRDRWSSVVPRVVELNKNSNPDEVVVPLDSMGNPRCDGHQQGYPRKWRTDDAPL

O=[N+]([O-])c1ccc(SSc2ccc([N+](=O)[O-])cn2)nc1
active: [1] | [6]
inactive: [2] | [3] | [4] | HEK293 [5]

CC(=O)N[C@@H](C(=O)O)C(C)(C)SN=O (racemic)
active: [8] | [9] | [10] | [12]
inactive: [7] | HEK293 [11]
